# Data as given in patent US20100249165A1, “PDZ DOMAIN MODULATORS” (University of Copenhagen, priority 2007, published 2010).
# “Also recorded” adds a separate entry of the source. Peptide text beside a SMILES is read from it.
# Assays:
# [1] = biological target: T1, PDZ domain of PICK1 (Rattus norvegicus, UniProt Q9EP80); assay: Fluorescence polarization competition binding to PICK1 (Oregon Green-labeled DAT peptide tracer); conditions: for Ki: competition with DAT13 OrG tracer 40 nM, fixed subsaturating PICK1, 15 min incubation, means of three independent experiments, read-out: Ki (μM) [SE interval]; for potency in displacing the fluorescently tagged tracer (in words): unlabeled peptide titrated against fixed PICK1 and labeled DAT peptide
# T1 construct: The entire coding region of rat PICK1 (residues 2-416); GST (N, cleaved yes); made in house; host or cells: E. coli BL21(DE3) pLysS
# Source text: (§1) The entire coding region of rat PICK1 (residues 2-416) is amplified from a pCINEO vector by PCR using pfu polymerase according to the instructions by the manufacturer (Stratagene, La Jolla, Calif.). The primers used introduce a 5′ restriction site for MunI and 3′ restriction site for AvrII. The PCR fragment is cleaved with MunI and AvrII and cloned into the reading frame of the pET41a vector (Novagen, Madison, Wis.) producing an N-terminally glutathione-S-transferase (GST) fusion of PICK1. The GST-PICK1 fusion was expressed in E. coli BL21(DE3) pLysS (Novagen). The transformed bacteria are grown to OD600 0.6 and expression of the fusion protein is induced with isopropyl-β-D1-thiogalactopyranoside (105 μM) overnight at 30° C. The bacteria are lysed by freezing and thawing in TBS buffer containing [50 mM Tris pH 7.4, 125 mM NaCl, 1% TX-100, 20 μg/mL DNAse I, 1 mM DTT (Sigma)]. The lysate is cleared by centrifugation (rotor SS-34, 18000 rpm, 48000×g, 30 min). The supernatant is incubated with glutathione-sepharose beads (Amersham Biosciences) under slow rotation for 90 minutes at 4° C. The beads are pelleted at 3500 g for 5 minutes and washed in TBS buffer containing [50 mM Tris pH 7.4, 125 mM NaCl, 0.1% TX-100, 1 mM DTT] by three batch washes. The protein is separated from the GST domain by cleavage with thrombin protease (Novagen) in the above wash buffer at 4° C. overnight. Samples of 10 μl are taken from the protein solution for determination of protein concentration and for analysis by SDS-PAGE. Protein determinations are performed using the BCA Protein Assay Reagent kit (Pierce Biotechnology, Inc, Rockford, Ill.) according to manufactures protocol using bovine serum albumin as standard. Gels are stained with GelCode Blue Stain Reagent (Pierce Biotechnology) in order to inspect size, integrity and purity of the protein (Madsen et al., JBC, 280, 20539-48, 2005).
# This assay is used to screen for compounds binding to the PDZ binding groove in PICK1. The assay is based on the predicted decrease in rotational diffusion of a fluorescently labeled peptide upon its binding to a larger protein. The decrease in rotational diffusion upon binding of a fluorescent labeled peptide to PICK1 can be detected as an increase in fluorescence polarization (FP). Binding of a small-molecule compound to the PDZ binding groove can be detected by its ability to displace the fluorescently labeled peptide resulting in a decreased in FP (Madsen et al., JBC, 280, 20539-48, 2005).
# To perform the assay, compounds are loaded (10 μl of each) in microtiter-plates (88 compounds per 96 well plate) (Corning) at a concentration of 1 mM in DMSO. To each well is added 90 μl buffer containing Tris base (50 mM), NaCl (125 mM), TX-100 (0.1%), PICK1 (0.45 μM) and fluorescently labeled peptide. This peptide corresponds to the C-terminus of a protein that binds to the PICK1 PDZ domain. For example, the peptide can correspond to the last 13 C-terminal residues of the DAT, of protein kinase Cα or of the GluR2 subunit of the AMPA reaceptor. The peptide can be labeled with any fluorophore. For example it can be labeled with a sulfhydryl-reactive derivative of Oregon Green via a cysteine introduced in the peptide. The peptide is used in a concentration of about 40 nM. The final concentration of the compounds in the initial screen is 100 μM. After approximately 15 min of incubation at […] the plates are analyzed in a Chameleon plate-reader (HIDEX) in the FP mode using a 488 nm excitation filter and a 535 nm long pass emission filter. Each measurement is an average of 100 flashes and is carried out four times. FP is calculated according to the equation FP=(IV−g*IH)/(IV+g*IH). As negative and positive controls, respectively, pure DMSO and DMSO with unlabeled DAT peptide (20 μM final conc.) are measured in parallel. All compounds are tested twice on separate plates.
# [2] = biological target: T2, interaction between PICK1 and a DAT-peptide fused to GST (Rattus norvegicus, UniProt Q9EP80); assay: GST-DAT pull-down assay of PICK1; format: binding; conditions: PICK1 band on SDS-PAGE compared with control pull-down
# T2 construct: The entire coding region of rat PICK1 (residues 2-416); GST (N, cleaved yes); made in house; host or cells: E. coli BL21(DE3) pLysS
# Experimental: To verify binding of active compounds identified in the FP screen, a biochemical pulldown assay can be employed.
# A fusion between GST and the 24 C-terminal amino acids of the dopamine transporter (GST DAT C24) is expressed in BL21(DE3)pLysS (Novagen) using the pET41a vector (Novagen, Madison, Wis.) and purified as described for PICK1 but without digestion with thrombin.
# 5 μl dry volume of glutathione-coated sepharose beads (Pharmacia) with bound GST alone or GST DAT C24 are suspended in 200 μl TBS buffer containing as follows [50 mM Tris pH 7.4, 125 mM NaCl, 0.1% TX-100, 1 mM DTT (Sigma) and PICK1 0.5 μM]. The compounds to be tested are added in DMSO to a final concentration of 200 μM (2% DMSO final concentrtaion). The last 11 amino acids of the C-terminus of the GLT1b glutamate transporter (60 μM final) and pure DMSO (2%) can be used as a positive and negative control, respectively.
# The samples are incubated at 4° C. under slow rotation for 30 min. The beads are centrifuged at 4000 g for 5 min and subsequently washed in TBS buffer and recentrifuged. The beads containing bound protein are eluted in loading buffer and analyzed by 12% SDS-PAGE and proteins are stained with Gelcode blue stain reagent (Pierce). Active compounds i.e. a blocked pull-down are recognized by a reduced PICK1 band on the SDS-PAGE gel compared to the control pull-down. […]
# [3] = biological target: T3, PICK1 GluR2 interaction (Rattus norvegicus, UniProt Q9EP80); assay: FRET between eCFP-GluR2 C29 and eYFP-PICK1 in COS7 cells; format: cell-based; conditions: compound added 20 min prior to image acquisition
# T3 construct: expressed in transfected cells; host or cells: COS7 cells, transient transfection
# Experimental: To determine whether a compound is able to block binding of a PD ligand, such as the c-terminus of the AMPA receptor GluR2 subunit, to the PICK1 PDZ domain in a cellular system a Fluorescent Resonance Energy Transfer (FRET) assay can be employed. PICK1 is fused to eYFP (eYFP-PICK1) and the C-terminal 29 residues of the AMPA receptor subunit GluR2 is fused to eCFP (eCFP-GluR2 C29). As a control for specificity of the FRET signal an alanine is added to the C-terminal 29 residues of GluR2 (eCFP-GluR2 C29+A) to disrupt the PDZ interaction. […]
# Fluorescence resonance energy transfer (FRET; see Schmid and Sitte, 2003) is measured with an epi-fluorescence microscope (Carl Zeiss TM210, Germany) using the “three-filter method” according to Xia and Liu (2001). […]
# Media are replaced by Krebs-HBS buffer (10 mM HEPES/120 mM NaCl/3 mM KCl/2 mM CaCl2/2 mM MgCl2), and images are taken using a 63× oil objective and a LUDL filter wheel that allows for rapid exchange of filters (less than 100 ms). The system is equipped with the following fluorescence filters: CFP filter (ICFP; exc.: 436 nm, dichr.: 455 nm, em.: 480 nm), YFP filter (IYFP; exc.: 500 nm, dichr.: 515 nm, em.: 535 nm) and FRET filter (IFRET: excitation=436 nm, dichroic mirror=455 nm, emission=535 nm). […] Background fluorescence is subtracted from all images and fluorescence intensity was measured in cytosolic regions in all images. […]
# [4] = biological target: T4, PICK1 (Rattus norvegicus, UniProt Q9EP80); assay: Fluorescence polarization saturation binding of fluorescently labeled peptides to PICK1
# T4 construct: The entire coding region of rat PICK1 (residues 2-416); GST (N, cleaved yes); made in house; host or cells: E. coli BL21(DE3) pLysS
# Source text: as §1, with “Samples of 10 μl are taken from the protein solution for determination of protein concentration and for analysis by SDS-PAGE. Protein determinations are performed using the BCA Protein Assay Reagent kit (Pierce Biotechnology, Inc, Rockford, Ill.) according to manufactures protocol using bovine serum albumin as standard. Gels are stained with GelCode Blue Stain Reagent (Pierce Biotechnology) in order to inspect size, integrity and purity of the protein (Madsen et al., JBC, 280, 20539-48, 2005).” left out
# T3 sequence (Q9EP80 whole entry): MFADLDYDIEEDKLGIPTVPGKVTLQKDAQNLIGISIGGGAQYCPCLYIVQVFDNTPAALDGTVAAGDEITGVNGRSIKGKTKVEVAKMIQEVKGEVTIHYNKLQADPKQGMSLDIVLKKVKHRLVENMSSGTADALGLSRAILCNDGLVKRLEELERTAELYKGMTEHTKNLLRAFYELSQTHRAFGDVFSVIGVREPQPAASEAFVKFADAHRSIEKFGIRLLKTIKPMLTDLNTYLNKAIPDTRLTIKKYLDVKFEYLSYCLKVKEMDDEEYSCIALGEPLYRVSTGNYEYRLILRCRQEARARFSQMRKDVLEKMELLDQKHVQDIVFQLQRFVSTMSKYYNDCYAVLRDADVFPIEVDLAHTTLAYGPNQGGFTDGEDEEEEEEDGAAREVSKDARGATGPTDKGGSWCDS
# T1 sequence (Q9EP80 2-416): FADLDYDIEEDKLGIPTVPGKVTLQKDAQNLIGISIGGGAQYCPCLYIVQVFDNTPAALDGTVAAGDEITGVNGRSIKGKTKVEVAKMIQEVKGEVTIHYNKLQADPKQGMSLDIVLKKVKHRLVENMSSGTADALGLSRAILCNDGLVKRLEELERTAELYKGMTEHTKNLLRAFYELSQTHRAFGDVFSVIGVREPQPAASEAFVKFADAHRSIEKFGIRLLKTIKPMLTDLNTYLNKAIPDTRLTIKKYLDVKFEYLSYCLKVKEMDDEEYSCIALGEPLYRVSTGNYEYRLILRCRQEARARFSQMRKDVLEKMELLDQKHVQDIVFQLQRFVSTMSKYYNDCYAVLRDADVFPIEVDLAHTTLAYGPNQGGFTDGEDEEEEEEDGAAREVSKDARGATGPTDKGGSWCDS
# T2 sequence (Q9EP80 2-416): as above
# T4 sequence (Q9EP80 2-416): as above
compound,measurement,setting,value
"O=C1C(=Cc2cc(Br)ccc2OCc2ccccc2)C(=O)c2ccccc21 [v, 2-(2-Benzyloxy-5-bromo-benzylidene)-indan-1,3-dione]",Ki,[1],7.7 µM
"CC(C)C[C@H](NC(=O)[C@H](Cc1c[nH]c2ccccc12)NC(=O)[C@H](Cc1c[nH]cn1)NC(=O)[C@H](CCCNC(=N)N)NC(=O)[C@H](CC(C)C)NC(=O)[C@@H](NC(=O)[C@H](Cc1ccccc1)NC(=O)[C@H](CCC(N)=O)NC(=O)[C@H](CCCNC(=N)N)NC(=O)[C@@H](NC(=O)[C@@H](N)CCC(=O)O)C(C)C)[C@@H](C)O)C(=O)N[C@@H](CCCCN)C(=O)N[C@H](C(=O)O)C(C)C [DAT peptide, reference compound] (H-EVRQFTLRHWLKV-OH; N-terminus and C-terminus assumed)",potency in displacing the fluorescently tagged tracer (in words),[1],more than one order of magnitude more potent
"CCOC(=O)c1ccc(-c2ccc(/C=C3/C(=O)NN(c4ccc(C)c(Cl)c4)C3=O)o2)cc1 [t, 4-{5-[1-(3-Chloro-4-methyl-phenyl)-3,5-dioxo-pyrazolidin-(4Z)-ylidenemethyl]-furan-2-yl}-benzoic acid ethyl ester]",Ki,[1],13.7 µM
"CCOc1cc(Cl)c(Cl)c(C=O)c1O [d, 2,3-Dichloro-5-ethoxy-6-hydroxy-benzaldehyde]",Ki,[1],67 µM
"CC(C)(C)c1ccc(O)c(/N=C/c2cc(N=Nc3ccc(Cl)cc3)ccc2O)c1 [q, 4-tert-Butyl-2-{[1-[5-(4-chloro-phenylazo)-2-hydroxy-phenyl]-meth-(E)-ylidene]-amino}-phenol]",Ki,[1],19.1 µM
"CCOC(=O)NC(=O)/C(C#N)=C\c1ccc(Cl)c(Cl)c1 [j, [(Z)-2-Cyano-3-(3,4-dichlorophenyl)-acryloyl]-carbamic acid ethyl ester]",Ki,[1],40 µM
same,pull-down of PICK1 by GST-DAT (in words),[2],inhibition; also recorded: inhibited
same,FRET between eYFP-PICK1 and eCFP-GluR2 C29 (in words),[3]; compared to vehicle (1% DMSO),specifically reduced; also recorded: significantly reduced
same,FRET between eYFP-PICK1 and eCFP-GluR2 C29+A (in words),[3]; specificity control construct,no effect
"β2 AR peptide: peptide corresponding to the 13 C-terminal residues of the β2 AR, type I PDZ binding sequence -DSLL; specificity control (SQGRNCSTNDSLL; UniProt P07550 401-413, looked up, fragment) [reference compound]",potency in displacing the fluorescently tagged tracer (in words),[1],much less potent
same,apparent affinity (in words),[4]; fluorescently labeled peptide,very low apparent affinity
"O=C1C(=O)c2cc([N+](=O)[O-])ccc2-c2ccccc21 [w, 2-Nitro-phenanthrene-9,10-dione]",Ki,[1],4.4 µM
"PKCα peptide: peptide corresponding to the 13 C-terminal residues of PKCα, type I PDZ binding sequence -QSAV (NPQFVHPILQSAV; UniProt P17252 660-672, looked up, fragment)",fold lower apparent affinity than the DAT peptide,[4],~10 fold
